In one assay the target is T1, Cytochrome P450 2A5 (Mus musculus, UniProt P20852).
T1 sequence (P20852 whole entry): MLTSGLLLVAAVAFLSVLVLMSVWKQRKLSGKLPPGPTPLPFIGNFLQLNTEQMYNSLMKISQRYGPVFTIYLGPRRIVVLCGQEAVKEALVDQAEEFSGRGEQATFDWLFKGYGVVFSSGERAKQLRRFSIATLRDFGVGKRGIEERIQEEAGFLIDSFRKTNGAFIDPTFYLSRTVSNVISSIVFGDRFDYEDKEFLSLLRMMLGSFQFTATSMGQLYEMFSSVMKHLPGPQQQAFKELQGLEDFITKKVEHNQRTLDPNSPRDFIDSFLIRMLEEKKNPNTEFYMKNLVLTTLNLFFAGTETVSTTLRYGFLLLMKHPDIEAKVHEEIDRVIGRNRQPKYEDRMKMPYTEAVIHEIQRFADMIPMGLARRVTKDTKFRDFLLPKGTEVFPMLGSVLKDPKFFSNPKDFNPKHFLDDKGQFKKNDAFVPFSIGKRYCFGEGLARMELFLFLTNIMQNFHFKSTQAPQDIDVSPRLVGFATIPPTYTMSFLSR
The experiment in a line: Inhibition of mouse CYP2A5.

A further assay concerns the target T2, Cytochrome P450 2A6 (Homo sapiens, UniProt P11509).
T2 sequence (P11509 whole entry): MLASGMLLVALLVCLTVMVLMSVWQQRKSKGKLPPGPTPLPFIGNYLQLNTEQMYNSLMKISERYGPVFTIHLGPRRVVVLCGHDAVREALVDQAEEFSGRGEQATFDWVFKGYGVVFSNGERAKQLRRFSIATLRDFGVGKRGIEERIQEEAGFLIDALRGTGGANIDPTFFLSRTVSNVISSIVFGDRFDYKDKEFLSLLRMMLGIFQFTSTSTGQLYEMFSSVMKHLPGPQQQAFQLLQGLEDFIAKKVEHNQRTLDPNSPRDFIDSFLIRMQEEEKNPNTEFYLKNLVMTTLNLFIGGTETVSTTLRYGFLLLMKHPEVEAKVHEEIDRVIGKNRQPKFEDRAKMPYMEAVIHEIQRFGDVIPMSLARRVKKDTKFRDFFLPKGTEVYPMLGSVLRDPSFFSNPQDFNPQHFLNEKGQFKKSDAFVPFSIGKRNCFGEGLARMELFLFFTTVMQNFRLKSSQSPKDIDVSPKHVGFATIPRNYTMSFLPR
The experiment in a line: Inhibition of human CYP2A6.

Molecules are shown by their SMILES. pIC50: −log10 of the molar value.

Broadly, the pIC50 is the negative decadic logarithm of the IC50, by convention in mol/L.

In turn, `Clc1ccc(-c2ccccc2)cc1` had a pIC50 at Cytochrome P450 2A5 of 4.89.
For `CN1CCC[C@H]1c1cccnc1` [NICOTINE], the negative logarithm of the IC50 (pIC50) against Cytochrome P450 2A6 is 3.24; at Cytochrome P450 2A5, 3.80.
Regarding `CN1C(=O)CCC1c1cccnc1` (centres undefined), on Cytochrome P450 2A5, the pIC50 is 2.82.

The values above are taken from ChEMBL document CHEMBL1158374, “Exploring QSAR and QAAR for inhibitors of cytochrome P450 2A6 and 2A5 enzymes using GFA and G/PLS techniques” (Eur J Med Chem, 2009).
